Test results: ChEMBL document CHEMBL3885881, “DrugMatrix”

Species: Rattus norvegicus
Assay: DrugMatrix - Regimen: Daily Repeat
Type: toxicity, organism-based, Sprague-Dawley
Design: regimen Daily Repeat, gender Male, age 6-8 weeks
Conditions: in vivo, po, 3 mg/kg, route oral GAVAGE, dose level Low, vehicle 100 % WATER; for ABSOLUTE BASOPHIL / ABSOLUTE EOSINOPHIL / ABSOLUTE LYMPHOCYTE / ABSOLUTE MONOCYTE / ABSOLUTE SEGMENTED NEUTROPHIL / BASOPHIL / EOSINOPHIL / ERYTHROCYTE COUNT / HEMATOCRIT / HEMOGLOBIN / LEUKOCYTE COUNT / LYMPHOCYTE / MEAN CORPUSCULAR HEMOGLOBIN / MEAN CORPUSCULAR HEMOGLOBIN CONCENTRATION / MONOCYTE / NEUTROPHIL / NUCLEATED RED BLOOD CELLS / PLATELET COUNT: tissue Blood; for ALANINE AMINOTRANSFERASE / ALBUMIN / ALKALINE PHOSPHATASE / ASPARTATE AMINOTRANSFERASE / BLOOD UREA NITROGEN / CARBON DIOXIDE / CHLORIDE / CHOLESTEROL / CREATINE PHOSPHOKINASE / CREATININE / GLUCOSE / LACTATE DEHYDROGENASE / LIPASE / PHOSPHORUS / SODIUM / TOTAL BILIRUBIN / TOTAL PROTEIN / URIC ACID: tissue Plasma

## COc1cc2nc(N3CCN(C(=O)C4CCCO4)CC3)nc(N)c2cc1OC (configuration not stated) [TERAZOSIN]
72 h, time 3 day
  ABSOLUTE BASOPHIL: 0 CELLS/uL
  ABSOLUTE EOSINOPHIL: 53.33 CELLS/uL
  ABSOLUTE LYMPHOCYTE: 7633 CELLS/uL
  ABSOLUTE MONOCYTE: 36.67 CELLS/uL
  ABSOLUTE SEGMENTED NEUTROPHIL: 977 CELLS/uL
  BASOPHIL: 0%
  EOSINOPHIL: 0.67%
  ERYTHROCYTE COUNT: 4.99 x10E6/uL
  HEMATOCRIT: 32.2%
  HEMOGLOBIN: 12.87 G/DL
  LEUKOCYTE COUNT: 8.7 x10E3/uL
  LYMPHOCYTE: 88%
  MEAN CORPUSCULAR HEMOGLOBIN: 25.87 pg
  MEAN CORPUSCULAR HEMOGLOBIN CONCENTRATION: 40 G/DL
  MONOCYTE: 0.33%
  NEUTROPHIL: 11%
  NUCLEATED RED BLOOD CELLS: 0 /100WBC
  PLATELET COUNT: 1053.33 x10E3/uL
  ALANINE AMINOTRANSFERASE: 63.67 u/L
  ALBUMIN: 4.27 G/DL
  ALKALINE PHOSPHATASE: 367.67 u/L
  ASPARTATE AMINOTRANSFERASE: 102.33 u/L
  BLOOD UREA NITROGEN: 16.67 mg/dL
  CARBON DIOXIDE: 32.67 mmol/L
  CHLORIDE: 103.33 MEQ/L
  CHOLESTEROL: 74 mg/dL
  CREATINE PHOSPHOKINASE: 321.67 u/L
  CREATININE: 0.24 mg/dL
  GLUCOSE: 155 mg/dL
  LACTATE DEHYDROGENASE: 197.67 u/L
  LIPASE: 8.33 u/L
  PHOSPHORUS: 12.7 mg/dL
  SODIUM: 145.9 MEQ/L
  TOTAL BILIRUBIN: 0.13 mg/dL
  TOTAL PROTEIN: 5.97 G/DL
  URIC ACID: 1.27 mg/dL
120 h, time 5 day
  ABSOLUTE BASOPHIL: 0 CELLS/uL
  ABSOLUTE EOSINOPHIL: 0 CELLS/uL
  ABSOLUTE LYMPHOCYTE: 9705.67 CELLS/uL
  ABSOLUTE MONOCYTE: 145.67 CELLS/uL
  ABSOLUTE SEGMENTED NEUTROPHIL: 882 CELLS/uL
  BASOPHIL: 0%
  EOSINOPHIL: 0%
  ERYTHROCYTE COUNT: 5.4 x10E6/uL
  HEMATOCRIT: 35.9%
  HEMOGLOBIN: 13.87 G/DL
  LEUKOCYTE COUNT: 10.73 x10E3/uL
  LYMPHOCYTE: 90.33%
  MEAN CORPUSCULAR HEMOGLOBIN: 25.7 pg
  MEAN CORPUSCULAR HEMOGLOBIN CONCENTRATION: 38.67 G/DL
  MONOCYTE: 1.33%
  NEUTROPHIL: 8.33%
  NUCLEATED RED BLOOD CELLS: 0 /100WBC
  PLATELET COUNT: 1076.33 x10E3/uL
  ALANINE AMINOTRANSFERASE: 56.67 u/L
  ALBUMIN: 4.27 G/DL
  ALKALINE PHOSPHATASE: 361.33 u/L
  ASPARTATE AMINOTRANSFERASE: 85.33 u/L
  BLOOD UREA NITROGEN: 20.67 mg/dL
  CARBON DIOXIDE: 30 mmol/L
  CHLORIDE: 102.67 MEQ/L
  CHOLESTEROL: 75.33 mg/dL
  CREATINE PHOSPHOKINASE: 197.33 u/L
  CREATININE: 0.24 mg/dL
  GLUCOSE: 172 mg/dL
  LACTATE DEHYDROGENASE: 141.67 u/L
  LIPASE: 11.33 u/L
  PHOSPHORUS: 13.7 mg/dL
  SODIUM: 146.17 MEQ/L
  TOTAL BILIRUBIN: 0.2 mg/dL
  TOTAL PROTEIN: 5.9 G/DL
  URIC ACID: 1.7 mg/dL
